Source: patent US8063225B2, “Tricyclic compound derivatives useful in the treatment of neoplastic diseases, inflammatory disorders and immunomodulatory disorders” (Chembridge Corporation, priority 2006, dated 2011)

Columns and labels:
TrkA = biological target: T1, TrkA (Homo sapiens, UniProt P04629); assay: Tyrosine kinase assay (Kinase-Glo or AlphaScreen), TrkA; settings: biochemical tyrosine kinase assay
T1 construct: 6×His- or GST-tagged kinase domain fragments of the corresponding RTKs expressed in baculovirus system; host or cells: baculovirus system
Method: To determine inhibition of several tyrosine kinases, such as IGF1R, InsR, Alk, TrkA and Jak2, kinase assays are conducted using either Kinase-Glo (Promega) or AlphaScreen (PerkinElmer) kinase assay platforms. The Kinase-Glo Luminescent Kinase Assay is a homogeneous method for measuring kinase activity by determining the amount of ATP remaining after a kinase reaction. The luminescent signal is proportional to the amount of ATP and inversely proportional to the amount of kinase activity. Tyrosine kinase PT66 AlphaScreen Assay is a high-sensitivity homogeneous, anti-phosphotyrosine antibody-mediated luminescent proximity method measuring, incorporation of phosphate in synthetic poly(Glu-Tyr) substrate. The kinase preparations used consist of purified recombinant, 6×His- or GST-tagged kinase domain fragments of the corresponding RTKs expressed in baculovirus system.
The IGF1R tyrosine kinase is assayed in Kinase-Glo ATP depletion assay using the synthetic polymer poly(Glu-Tyr, 4:1) (Sigma Chemicals) as a phosphoacceptor substrate. Each reaction mixture consists of a total volume of 10 μl and contains 40 ng of the enzyme, 5 μg of poly(Glu-Tyr), 10 μM of ATP and variable concentrations of test compounds. The mixtures also contain 50 mM Tris-HCl, pH 7.5; 5 mM MgCl2; 5 mM MnCl2; 2 mM DTT and 0.01% Tween 20. The reaction mixtures are incubated at 37° C. for 60 minutes and residual concentration of ATP in the mixture is determined by adding luciferase-containing Kinase-Glo (Promega) development reagent and counting luminescence levels using Fusion Universal Microplate Analyzer (PerkinElmer). Tested compounds are dissolved in dimethyl sulfoxide to a stock concentration of 10 mM and are typically evaluated in the assay at eight concentrations in 1 nM to 20 μM range, each in quadruplicate. […] IC50 values are derived by non-linear regression analysis using Prism 3.0 software (Graphpad Software). Other tyrosine kinases are assayed according to the same protocol after titrating amount of the enzyme to provide optimal signal-to-noise ratio and no more than 30% of total ATP consumption in the reaction conditions used.
The IGF1R tyrosine kinase is assayed in Phosphotyrosine (PT66 or PT 100) AlphaScreen chemiluminescent assay (PerkinElmer) according to the manufacturerer's recommendations. Each kinase reaction mixture consists of a total volume of 15 μl and contains 0.1-1 ng of the enzyme, 7 ng of biotinylated poly(Glu-Tyr) (Cis-Bio), 10 μM of ATP and variable concentrations of test compounds. The mixtures also contain 50 mM Tris-HCl, pH 7.5; 5 mM MgCl2; 5 mM MnCl2; 2 mM DTT and 0.01% Tween 20. The reaction mixtures are incubated at room temperature for 30 minutes. Ten (10) μl of the mixture of […] and donor beads (as supplied by the manufacturer) is then added to the reaction and the incubation is continued for an additional 60 minutes.

[1] = tested on: HEK293 (human normal embryonic kidney); assay: Cell proliferation inhibition, Cell Titer-Glo, HEK293; type: cell-based; settings: cell proliferation assay, HEK293 cells, read-out: HEK 293 IC50
Procedure, shortened: (§1)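 Cells seeded at 2500-5000 per well with serially diluted compound for typically 3 days. Viable cells measured by ATP luminescence (Cell Titer-Glo); IC50 from proliferation-inhibition curves.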

[2] = tested on: CHO (chinese hamster ovary); assay: Cell proliferation inhibition, Cell Titer-Glo, CHO; type: cell-based; settings: Cricetulus griseus; cell proliferation assay, CHO cells
Procedure, shortened: as §1

Ba/F3 = assay: Cell proliferation inhibition, Cell Titer-Glo, Ba/F3; type: cell-based; settings: Mus musculus, BaF3; cell proliferation assay, Ba/F3 cells
Procedure, shortened: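 This standard 3-day proliferation assay used Ba/F3 cells plated in 384-well white plates with clear bottoms at 2500-5000 cells per well and treated with compound dilutions. Viable cell number was determined by mixing in Cell Titer-Glo developing reagent according to the manufacturer's protocol and counting luminescence. Percent viability relative to day 0 and untreated wells produced IC50 curves.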

Karpas-299 = assay: Cell proliferation inhibition, Cell Titer-Glo, Karpas-299; type: cell-based; settings: Homo sapiens; cell proliferation assay, Karpas-299 cells
Procedure, shortened: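 In this standard 3-day proliferation assay, Karpas 299 cells plated at 2500-5000 cells per well in 384-well white, clear-bottomed plates were treated with compound dilutions. Cell Titer-Glo developing reagent was added following the manufacturer's protocol, luminescence reflecting ATP content was read on a multiwell plate reader, and IC50 curves were generated.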

T1 sequence (P04629 510-781 limits assumed, species assumed): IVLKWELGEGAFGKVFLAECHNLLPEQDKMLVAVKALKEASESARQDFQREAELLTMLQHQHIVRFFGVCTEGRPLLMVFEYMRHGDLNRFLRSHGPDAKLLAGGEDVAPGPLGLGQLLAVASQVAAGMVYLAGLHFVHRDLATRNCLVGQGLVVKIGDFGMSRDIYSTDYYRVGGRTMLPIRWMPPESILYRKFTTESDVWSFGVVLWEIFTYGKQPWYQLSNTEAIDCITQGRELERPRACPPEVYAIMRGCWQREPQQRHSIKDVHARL

SMILES	IC50 (TrkA) [µM]	IC50 [1] [µM]	IC50 [2] [µM]	IC50 (Ba/F3) [µM]	IC50 (Karpas-299) [µM]
Cc1ccc(OCC(O)CNc2cc[nH]c(=O)c2-c2nc3cc4c(cc3[nH]2)C(=O)N(C2CCN(C)CC2)C4=O)c(C)c1 (stereo not drawn) [compound 15]	< 0.5	5 to 15	–	–	–
Cc1ccc2c(ccn2C[C@H](O)CNc2cc[nH]c(=O)c2-c2nc3cc4c(cc3[nH]2)C(=O)N(C2CCN(C)CC2)C4=O)c1 [compound 131]	< 0.5	0.5 to 5	5 to 15	> 15	> 15
Cc1ccc(OC[C@H](O)CNc2cc[nH]c(=O)c2-c2nc3c(C)c4c(cc3[nH]2)CN(C2CCN(C)CC2)C4=O)c(C)c1 [compound 140]	–	5 to 15	> 15	–	–
